Data taken from PubChem BioAssay AID1963961 (Molecular Pharmacology Branch, DTP, NCI, 2024).

System: K98450-129-R-PDC multicell spheroids, viability
Experiment: Anticancer human tumor K98450-129-R-PDC patient-derived colon adenocarcinoma cell line growth inhibition [PI3K]
Conditions: for IC50: curve of first compound; for viability, T/C: stronger effect = lower value
How it was run: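 We assembled tumor spheroids that included a stromal compartment of HUVEC and MSCs, then exposed them to targeted agents alone and together with PI3K pathway inhibitors. Concentration series descended by half-log from clinically achievable Cmax levels. Viability served as the endpoint.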

[1] = second compound 0.0316 µM, first compound 0.0316 µM
[2] = second compound 0.0316 µM, first compound 0.1 µM
[3] = second compound 0.0316 µM, first compound 0.316 µM
[4] = second compound 0.0316 µM, first compound 1 µM
[5] = second compound 0.1 µM, first compound 0.0316 µM
[6] = second compound 0.1 µM, first compound 0.1 µM
[7] = second compound 0.1 µM, first compound 0.316 µM
[8] = second compound 0.1 µM, first compound 1 µM
[9] = second compound 0.316 µM, first compound 0.0316 µM
[10] = second compound 0.316 µM, first compound 0.1 µM
[11] = second compound 0.316 µM, first compound 0.316 µM
[12] = second compound 0.316 µM, first compound 1 µM
[13] = second compound 1 µM, first compound 0.0316 µM
[14] = second compound 1 µM, first compound 0.1 µM
[15] = second compound 1 µM, first compound 0.316 µM
[16] = second compound 1 µM, first compound 1 µM
[17] = second compound 3.16 µM, first compound 0.0316 µM
[18] = second compound 3.16 µM, first compound 0.1 µM
[19] = second compound 3.16 µM, first compound 0.316 µM
[20] = second compound 3.16 µM, first compound 1 µM
[21] = second compound 10 µM, first compound 0.0316 µM
[22] = second compound 10 µM, first compound 0.1 µM
[23] = second compound 10 µM, first compound 0.316 µM
[24] = second compound 10 µM, first compound 1 µM
[25] = second compound 0.0316 µM, first compound 0.00316 µM
[26] = second compound 0.0316 µM, first compound 0.01 µM
[27] = second compound 0.1 µM, first compound 0.00316 µM
[28] = second compound 0.1 µM, first compound 0.01 µM
[29] = second compound 0.316 µM, first compound 0.00316 µM
[30] = second compound 0.316 µM, first compound 0.01 µM
[31] = second compound 1 µM, first compound 0.00316 µM
[32] = second compound 1 µM, first compound 0.01 µM
[33] = second compound 3.16 µM, first compound 0.00316 µM
[34] = second compound 3.16 µM, first compound 0.01 µM
[35] = second compound 10 µM, first compound 0.00316 µM
[36] = second compound 10 µM, first compound 0.01 µM
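Note: spheroids exposed to agents for seven days before read-out.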

With `CC(C)NCC(C(=O)N1CCN(c2ncnc3c2C(C)CC3O)CC1)c1ccc(Cl)cc1` (stereo unspecified) + CC(Nc1ncnc2nc[nH]c12)c1cc2cccc(Cl)c2c(=O)n1-c1ccccc1 the IC50 (second compound 0.0316 µM) was > 10 µM, the IC50 (second compound 0.1 µM) was > 10 µM and the IC50 (second compound 0.316 µM) was > 10 µM. For the same compound, the IC50 (second compound 1 µM) was > 10 µM, the IC50 (second compound 3.16 µM) was > 10 µM and the IC50 (second compound 10 µM) was > 10 µM. For the same compound, the viability, T/C [1] was 98.2%, the viability, T/C [2] was 107% and the viability, T/C [3] was 101%. It also gave a viability, T/C [4] of 96.4%, a viability, T/C (second compound 0.0316 µM, first compound 3.16 µM) of 102% and a viability, T/C (second compound 0.0316 µM, first compound 10 µM) of 98.5%. The viability, T/C [5] was 111%, the viability, T/C [6] was 115% and the viability, T/C [7] was 99.3%. For the same compound, the viability, T/C [8] was 89.6%, the viability, T/C (second compound 0.1 µM, first compound 3.16 µM) was 94.9% and the viability, T/C (second compound 0.1 µM, first compound 10 µM) was 83.4%. It also gave a viability, T/C [9] of 96.6%, a viability, T/C [10] of 97.2% and a viability, T/C [11] of 87.1%. For the same compound, the viability, T/C [12] was 105%, the viability, T/C (second compound 0.316 µM, first compound 3.16 µM) was 105% and the viability, T/C (second compound 0.316 µM, first compound 10 µM) was 102%. It also gave a viability, T/C [13] of 106%, a viability, T/C [14] of 100% and a viability, T/C [15] of 104%. For the same compound, the viability, T/C [16] was 98.4%, the viability, T/C (second compound 1 µM, first compound 3.16 µM) was 115% and the viability, T/C (second compound 1 µM, first compound 10 µM) was 101%. It also gave a viability, T/C [17] of 79.2%, a viability, T/C [18] of 88.4% and a viability, T/C [19] of 101%. It also gave a viability, T/C [20] of 99.2%, a viability, T/C (second compound 3.16 µM, first compound 3.16 µM) of 97.5% and a viability, T/C (second compound 3.16 µM, first compound 10 µM) of 85.7%. It also gave a viability, T/C [21] of 110%, a viability, T/C [22] of 89.5% and a viability, T/C [23] of 77.5%. It also gave a viability, T/C [24] of 88.6%, a viability, T/C (second compound 10 µM, first compound 3.16 µM) of 103% and a viability, T/C (second compound 10 µM, first compound 10 µM) of 87.2%.
In the case of `CCN1CCN(Cc2ccc(Nc3ncc(F)c(-c4cc(F)c5nc(C)n(C(C)C)c5c4)n3)nc2)CC1` + CC(Nc1ncnc2nc[nH]c12)c1cc2cccc(Cl)c2c(=O)n1-c1ccccc1, the IC50 (second compound 0.0316 µM) is reported as > 1 µM, the IC50 (second compound 0.1 µM) is reported as > 1 µM and the IC50 (second compound 0.316 µM) is reported as > 1 µM. The IC50 (second compound 1 µM) was > 1 µM, the IC50 (second compound 3.16 µM) was > 1 µM and the IC50 (second compound 10 µM) was > 1 µM. The viability, T/C [25] was 111%, the viability, T/C [26] was 102% and the viability, T/C [1] was 109%. It also gave a viability, T/C [2] of 83.5%, a viability, T/C [3] of 81.6% and a viability, T/C [4] of 87%. The viability, T/C [27] was 106%, the viability, T/C [28] was 107% and the viability, T/C [5] was 91.9%. It also gave a viability, T/C [6] of 87.7%, a viability, T/C [7] of 87% and a viability, T/C [8] of 95%. It also gave a viability, T/C [29] of 101%, a viability, T/C [30] of 108% and a viability, T/C [9] of 94.6%. The viability, T/C [10] was 90.3%, the viability, T/C [11] was 89.7% and the viability, T/C [12] was 89.1%. It also gave a viability, T/C [31] of 93.1%, a viability, T/C [32] of 92.5% and a viability, T/C [13] of 95.9%. It also gave a viability, T/C [14] of 89.4%, a viability, T/C [15] of 84.8% and a viability, T/C [16] of 102%. It also gave a viability, T/C [33] of 95.1%, a viability, T/C [34] of 91.6% and a viability, T/C [17] of 81.1%. For the same compound, the viability, T/C [18] was 90.8%, the viability, T/C [19] was 82.4% and the viability, T/C [20] was 83.2%. It also gave a viability, T/C [35] of 86%, a viability, T/C [36] of 83.5% and a viability, T/C [21] of 81.9%. For the same compound, the viability, T/C [22] was 82.5%, the viability, T/C [23] was 86.1% and the viability, T/C [24] was 78.2%.
With `Cn1ncnc1[C@H]1c2n[nH]c(=O)c3cc(F)cc(c23)N[C@@H]1c1ccc(F)cc1` + CC(Nc1ncnc2nc[nH]c12)c1cc2cccc(Cl)c2c(=O)n1-c1ccccc1 the IC50 (second compound 0.0316 µM) was > 0.1 µM, the IC50 (second compound 0.1 µM) was > 0.1 µM and the IC50 (second compound 0.316 µM) was > 0.1 µM. The IC50 (second compound 1 µM) was > 0.1 µM, the IC50 (second compound 3.16 µM) was > 0.1 µM and the IC50 (second compound 10 µM) was > 0.1 µM. For the same compound, the viability, T/C (second compound 0.0316 µM, first compound 0.000316 µM) was 108%, the viability, T/C (second compound 0.0316 µM, first compound 0.001 µM) was 118% and the viability, T/C [25] was 111%. The viability, T/C [26] was 111%, the viability, T/C [1] was 97.9% and the viability, T/C [2] was 87.2%. The viability, T/C (second compound 0.1 µM, first compound 0.000316 µM) was 110%, the viability, T/C (second compound 0.1 µM, first compound 0.001 µM) was 106% and the viability, T/C [27] was 97.5%. For the same compound, the viability, T/C [28] was 107%, the viability, T/C [5] was 104% and the viability, T/C [6] was 114%. The viability, T/C (second compound 0.316 µM, first compound 0.000316 µM) was 109%, the viability, T/C (second compound 0.316 µM, first compound 0.001 µM) was 97.5% and the viability, T/C [29] was 112%. The viability, T/C [30] was 98.3%, the viability, T/C [9] was 108% and the viability, T/C [10] was 85.5%. It also gave a viability, T/C (second compound 1 µM, first compound 0.000316 µM) of 100%, a viability, T/C (second compound 1 µM, first compound 0.001 µM) of 97.5% and a viability, T/C [31] of 93.8%. The viability, T/C [32] was 83.6%, the viability, T/C [13] was 94.5% and the viability, T/C [14] was 95.8%. The viability, T/C (second compound 3.16 µM, first compound 0.000316 µM) was 103%, the viability, T/C (second compound 3.16 µM, first compound 0.001 µM) was 100% and the viability, T/C [33] was 99.3%. The viability, T/C [34] was 104%, the viability, T/C [17] was 102% and the viability, T/C [18] was 88%. For the same compound, the viability, T/C (second compound 10 µM, first compound 0.000316 µM) was 86.5%, the viability, T/C (second compound 10 µM, first compound 0.001 µM) was 120% and the viability, T/C [35] was 88.2%. It also gave a viability, T/C [36] of 87.8%, a viability, T/C [21] of 98.3% and a viability, T/C [22] of 91.8%.
